Assay results taken from patent publication US5614510A, “Pharmaceutical composition with improved bioavailability of inositol phosphate” (priority 1992, dated 1997).
Structures can show the parent of a compound that is named as a salt. One block for each compound: values may come before it.

Tests used:
[1] = bioavailability of IP3 in pigs: blood concentration of IP3 and AUC after intravenous, intraduodenal or oral administration; format: in vivo
Procedure: The blood samples were assayed for the content of IP3 and these measurements were used for the calculation of the reference data as 100% of the substance is introduced into the blood stream after an intravenous injection.
Another five pigs were given the N(3-dodecanoyloxy)propyltrimethyl ammonium salt of IP3 as an intraduodenal dosing. The animals were treated with Atropin® and anaesthetized with Hypnodil®/Sedaperone® whereafter a laparotomy was carried out. Blood samples were collected at the time intervals mentioned above and the concentration of IP3 was determined in each sample. By calculating the area under the curve (AUC) from a graph where the concentration versus time is shown and comparing the obtained value with a similar calculation from the data after intravenous injection of the substance the bioavailability for the specific formulation is obtained.
Blood samples were collected at the same time intervals as above and the concentration of IP3 was determined. Following a similar procedure the AUC was determined.
(§1) Blood samples were collected and the concentration of IP3 were determined.
as §1

[2] = system: intestinal barriers

Normalized AUC ([1]; pig, in vivo): 3%
Normalized AUC ([1]; pig, in vivo, iv): 100%
concentration at 0.25 h ([1]; pig, in vivo, iv): 71000 nM
concentration at 0.5 h ([1]; pig, in vivo, iv): 47500 nM
concentration at 1 h ([1]; pig, in vivo, iv): 24900 nM
concentration at 2 h ([1]; pig, in vivo, iv): 9300 nM
concentration at 4 h ([1]; pig, in vivo, iv): 3200 nM
concentration at 8 h ([1]; pig, in vivo, iv): 400 nM
concentration at 24 h ([1]; pig, in vivo, iv): 200 nM
conc. IP3 ([1]; pig, in vivo, iv, 0 min): 0 nM
concentration ([1]; pig, in vivo, iv, 2 h): 9300 nM
concentration at 0.25 h ([1]; pig, in vivo, po): 200 nM
concentration at 0.5 h ([1]; pig, in vivo, po): 500 nM
concentration at 1 h ([1]; pig, in vivo, po): 500 nM
concentration at 2 h ([1]; pig, in vivo, po): 200 nM
concentration at 4 h ([1]; pig, in vivo, po): 100 nM
concentration at 6 h ([1]; pig, in vivo, po): 100 nM
conc. IP3 ([1]; pig, in vivo, po, 0 min): 0 nM
concentration ([1]; pig, in vivo, po, 1 h): 500 nM
conc. IP3 ([1]; pig, in vivo, po, 480 min): 0 nM
conc. IP3 ([1]; pig, in vivo, po, 1440 min): 0 nM
Compound: O=P(O)(O)O[C@@H]1[C@H](OP(=O)(O)O)[C@H](O)[C@@H](O)[C@H](O)[C@H]1OP(=O)(O)O [sodium salt, pentasodium salt of D-myo-inositol-1.2.6-triphosphate]

Compound: N(3-dodecanoyloxy)propyltrimethylammonium inositol trisphosphate
conc. IP3 ([1]; pig blood, oral formulation given as intraduodenal dosing, 0 hrs): 0 nM
Normalized AUC ([1]; pig, in vivo): 46%
bioavailability of the oral formulation ([1]; pig, in vivo): 46%
concentration ([1]; pig, in vivo, 0.25 h): 6300 nM
concentration ([1]; pig, in vivo, 0.5 h): 9400 nM
concentration ([1]; pig, in vivo, 1 h): 10800 nM
concentration ([1]; pig, in vivo, 2 h): 7600 nM
concentration ([1]; pig, in vivo, 4 h): 2200 nM
concentration ([1]; pig, in vivo, 6 h): 1000 nM
concentration ([1]; pig, in vivo, 8 h): 800 nM
concentration ([1]; pig, in vivo, 24 h): 100 nM

Normalized AUC ([1]; pig, in vivo): 75%
bioavailability of the oral formulation ([1]; pig, in vivo): 75%
conc. IP3 ([1]; pig, in vivo, 0 min): 0 nM
concentration ([1]; pig, in vivo, 0.25 h): 18200 nM
concentration ([1]; pig, in vivo, 0.5 h): 29600 nM
concentration ([1]; pig, in vivo, 1 h): 20100 nM
concentration ([1]; pig, in vivo, 2 h): 12200 nM
concentration ([1]; pig, in vivo, 4 h): 4300 nM
concentration ([1]; pig, in vivo, 6 h): 1500 nM
concentration ([1]; pig, in vivo, 24 h): 100 nM
Compound: N-(hexyloxycarbonyl)methyl trimethyl ammonium inositol trisphosphate
toxic effects on the intestinal barriers [2]: no toxic effects on the intestinal barriers
